From US11629171B2, “Beta-hairpin peptidomimetics” (POLYPHOR AG, priority 2017, dated 2023)
≈ marks a conversion by molar mass, not a printed value. Where a SMILES comes first, the peptide text is derived from it. Bridges are numbered along the chain shown (N, C = ends). Roman numbers before positions name the chains, in order. [ ]: non-standard residue; d: D form. Pen = CC(C)(S)[C@H](N)C(=O)O; Tle = CC(C)(C)[C@H](N)C(=O)O; dDab = NCC[C@@H](N)C(=O)O; Nle = CCCC[C@H](N)C(=O)O; Dab = NCC[C@H](N)C(=O)O; Abu = CC[C@H](N)C(=O)O; Dap = NC[C@H](N)C(=O)O

Key:
[1] = test system: Acinetobacter baumannii 872842; format: cell-based; conditions: 872842
How it was run: (§1)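 CLSI broth microdilution: inoculum ~10^6 CFU/mL in cation-adjusted Mueller-Hinton II broth, with peptide in serial two-fold dilutions plus Polysorbate 80 (0.002% final). MIC (μg/mL) is the lowest concentration without visible growth after 18-20 hours at 35° C.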

[2] = test system: Acinetobacter baumannii DSM 30008; format: cell-based; conditions: DSM 30008
How it was run: as §1

[3] = test system: Enterobacter cloacae 848840; format: cell-based; conditions: 848840
How it was run: as §1

Escherichia coli 926415 = format: cell-based; conditions: 926415
How it was run: as §1

[4] = test system: Escherichia coli ATCC 25922; format: cell-based; conditions: ATCC 25922
How it was run: as §1

[5] = test system: Klebsiella pneumoniae 968733; format: cell-based; conditions: 968733
How it was run: as §1

[6] = test system: Klebsiella pneumoniae SSI #3010; format: cell-based; conditions: SSI #3010
How it was run: as §1

[7] = test system: Pseudomonas aeruginosa ATCC 27853; format: cell-based; conditions: ATCC 27853
How it was run: as §1

[8] = test system: human red blood cells (hRBC); assay: Hemolysis; format: cell-based; conditions: red cells of human, 1 h, 200
How it was run: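 Washed fresh human RBC (20% v/v) incubated with peptide at 200 μg/mL for 1 h at 37° C with shaking. Supernatant OD540 measured after dilution, blank corrected; percent hemolysis = OD540 peptide / OD540 of 2% Triton X-100 lysis × 100, PBS with 10% water as 0%.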

male ICR mice = assay: Tolerability in a mouse model (Maximum Tolerated Dose assay); format: in vivo; conditions: 2 × 30 mg/kg s.c. at a 12-hr interval, groups of 3
How it was run: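 Peptides in 0.9% NaCl (pH 6.5-7.6) given s.c. at 30 or 40 mg/kg, twice 12 h apart, to groups of 3 male ICR mice (23±3 g). Acute toxic signs (mortality, convulsions, tremors, sedation) and autonomic effects (diarrhea, salivation, piloerection) observed for 30 min after each dose.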

Structure (SMILES)	MIC [1]	MIC [2]	MIC [3]	MIC (Escherichia coli 926415)	MIC [4]	MIC [5]	MIC [6]	MIC [7]	Hemolysis at 200 μg/mL [8]	Mortality and dose (male ICR mice)
CC(=O)N[C@H](C(=O)N[C@H](C(=O)N[C@@H](Cc1ccc(O)cc1)C(=O)N[C@H]1CSSC[C@@H](C(=O)N[C@H](C(=O)N[C@@H](C)C(=O)N[C@H](C(N)=O)[C@@H](C)O)C(C)C)NC(=O)[C@H](Cc2c[nH]c3ccccc23)NC(=O)[C@H](CO)NC(=O)[C@@H](CCN)NC(=O)[C@H](CCC(=O)N[C@@H](CCN)C(=O)N[C@H](C(=O)N[C@@H](CN)C(=O)N[C@H]2CCNC(=O)[C@H]([C@@H](C)O)NC(=O)[C@H](CCN)NC(=O)[C@H](CCN)NC(=O)[C@H](CC(C)C)NC(=O)[C@@H](CC(C)C)NC(=O)[C@H](CCN)NC2=O)[C@@H](C)O)NC1=O)[C@@H](C)O)C(C)C [Ex. 219] (I: Ac-VTYCE[dDab]SWCVAT-NH2 / II: [Dab]T[Dap][Dab][Dab][dL]L[Dab][Dab]T; disulfide I:4-I:9; amide I:5-II:N; lactam II:4-II:C)	0.125 µg/mL (≈ 0.0521 µM)	0.03125 µg/mL (≈ 0.013 µM)	0.125 µg/mL (≈ 0.0521 µM)	0.25 µg/mL (≈ 0.104 µM)	0.03125 µg/mL (≈ 0.013 µM)	0.5 µg/mL (≈ 0.209 µM)	0.0625 µg/mL (≈ 0.0261 µM)	0.125 µg/mL (≈ 0.0521 µM)	<1%	0/3 died at 2 × 30 mg/kg
CC[C@@H]1NC(=O)[C@@H](CC(C)C)NC(=O)[C@H](CCN)NC(=O)[C@@H](NC(=O)[C@H](CN)NC(=O)[C@@H](NC(=O)[C@H](CCN)NC(=O)CC[C@@H]2NC(=O)[C@H](CO)NC(=O)[C@H](Cc3ccc(O)cc3)NC(=O)[C@@H](NC(=O)[C@@H](NC(C)=O)C(C)C)CSSC[C@@H](C(=O)N[C@@H](CO)C(N)=O)NC(=O)[C@H]([C@@H](C)CC)NC(=O)[C@H](CO)NC(=O)[C@H](Cc3c[nH]c4ccccc34)NC(=O)[C@H](CCN)NC(=O)[C@@H](CCN)NC2=O)[C@@H](C)O)CCNC(=O)[C@H]([C@@H](C)O)NC(=O)[C@H](CCN)NC(=O)[C@H](CCN)NC1=O [Ex. 257] (I: Ac-VCYSE[dDab][Dab]WSICS-NH2 / II: [Dab]T[Dap][Dab][Dab][dL][Abu][Dab][Dab]T; disulfide I:2-I:11; amide I:5-II:N; lactam II:4-II:C)	0.03125 µg/mL (≈ 0.0131 µM)	0.03125 µg/mL (≈ 0.0131 µM)	0.0625 µg/mL (≈ 0.0262 µM)	0.0625 µg/mL (≈ 0.0262 µM)	0.03125 µg/mL (≈ 0.0131 µM)	0.125 µg/mL (≈ 0.0524 µM)	0.03125 µg/mL (≈ 0.0131 µM)	0.0625 µg/mL (≈ 0.0262 µM)	1%	0/3 died at 2 × 30 mg/kg
CC[C@@H]1NC(=O)[C@@H](CC(C)C)NC(=O)[C@H](CCN)NC(=O)[C@@H](NC(=O)[C@H](CN)NC(=O)[C@@H](NC(=O)[C@H](CCN)NC(=O)CC[C@@H]2NC(=O)[C@H]([C@@H](C)O)NC(=O)[C@H](Cc3ccc(O)cc3)NC(=O)[C@@H](NC(=O)[C@@H](NC(C)=O)C(C)C)CSSC[C@@H](C(=O)N[C@@H](CO)C(N)=O)NC(=O)[C@H]([C@@H](C)CC)NC(=O)[C@H](CO)NC(=O)[C@H](Cc3c[nH]c4ccccc34)NC(=O)[C@H](CCN)NC(=O)[C@@H](CCN)NC2=O)[C@@H](C)O)CCNC(=O)[C@H]([C@@H](C)O)NC(=O)[C@H](CCN)NC(=O)[C@H](CCN)NC1=O [Ex. 258] (I: Ac-VCYTE[dDab][Dab]WSICS-NH2 / II: [Dab]T[Dap][Dab][Dab][dL][Abu][Dab][Dab]T; disulfide I:2-I:11; amide I:5-II:N; lactam II:4-II:C)	0.03125 µg/mL (≈ 0.013 µM)	0.03125 µg/mL (≈ 0.013 µM)	0.0625 µg/mL (≈ 0.0261 µM)	0.25 µg/mL (≈ 0.104 µM)	0.0625 µg/mL (≈ 0.0261 µM)	0.125 µg/mL (≈ 0.0521 µM)	0.03125 µg/mL (≈ 0.013 µM)	0.0625 µg/mL (≈ 0.0261 µM)	2%	0/3 died at 2 × 30 mg/kg
CCCC[C@H](NC(C)=O)C(=O)N[C@H]1CSSC[C@@H](C(=O)N[C@H](C(N)=O)[C@@H](C)O)NC(=O)[C@H]([C@@H](C)CC)NC(=O)[C@H](CO)NC(=O)[C@H](Cc2c[nH]c3ccccc23)NC(=O)[C@H](CCN)NC(=O)[C@@H](CCN)NC(=O)[C@H](CCC(=O)N[C@@H](CCN)C(=O)N[C@H](C(=O)N[C@@H](CN)C(=O)N[C@H]2CCNC(=O)[C@H]([C@@H](C)O)NC(=O)[C@H](CCN)NC(=O)[C@H](CCN)NC(=O)[C@H](CC)NC(=O)[C@@H](CC(C)C)NC(=O)[C@H](CCN)NC2=O)[C@@H](C)O)NC(=O)[C@H](CO)NC(=O)[C@H](Cc2ccc(O)cc2)NC1=O [Ex. 259] (I: Ac-[Nle]CYSE[dDab][Dab]WSICT-NH2 / II: [Dab]T[Dap][Dab][Dab][dL][Abu][Dab][Dab]T; disulfide I:2-I:11; amide I:5-II:N; lactam II:4-II:C)	0.03125 µg/mL (≈ 0.013 µM)	0.01562 µg/mL (≈ 0.00647 µM)	0.0625 µg/mL (≈ 0.0259 µM)	0.125 µg/mL (≈ 0.0518 µM)	0.01562 µg/mL (≈ 0.00647 µM)	0.0625 µg/mL (≈ 0.0259 µM)	0.03125 µg/mL (≈ 0.013 µM)	0.0625 µg/mL (≈ 0.0259 µM)	2%	0/3 died at 2 × 30 mg/kg
CC[C@@H]1NC(=O)[C@@H](CC(C)C)NC(=O)[C@H](CCN)NC(=O)[C@@H](NC(=O)[C@H](CN)NC(=O)[C@@H](NC(=O)[C@H](CCN)NC(=O)CC[C@@H]2NC(=O)[C@H](CO)NC(=O)[C@H](Cc3ccc(O)cc3)NC(=O)[C@@H](NC(=O)[C@@H](NC(C)=O)C(C)C)CSSC[C@@H](C(=O)N[C@@H](CO)C(N)=O)NC(=O)[C@H]([C@@H](C)CC)NC(=O)[C@H](CO)NC(=O)[C@H](Cc3c[nH]c4ccccc34)NC(=O)[C@H](CO)NC(=O)[C@@H](CCN)NC2=O)[C@@H](C)O)CCNC(=O)[C@H]([C@@H](C)O)NC(=O)[C@H](CCN)NC(=O)[C@H](CCN)NC1=O [Ex. 260] (I: Ac-VCYSE[dDab]SWSICS-NH2 / II: [Dab]T[Dap][Dab][Dab][dL][Abu][Dab][Dab]T; disulfide I:2-I:11; amide I:5-II:N; lactam II:4-II:C)	0.0625 µg/mL (≈ 0.0264 µM)	0.01562 µg/mL (≈ 0.00659 µM)	0.0625 µg/mL (≈ 0.0264 µM)	0.5 µg/mL (≈ 0.211 µM)	0.01562 µg/mL (≈ 0.00659 µM)	0.5 µg/mL (≈ 0.211 µM)	0.0625 µg/mL (≈ 0.0264 µM)	0.0625 µg/mL (≈ 0.0264 µM)	<1%	0/3 died at 2 × 30 mg/kg
CC(=O)N[C@H](C(=O)N[C@H]1CSSC[C@@H](C(=O)N[C@@H](CO)C(N)=O)NC(=O)[C@H](C(C)(C)C)NC(=O)[C@H](CO)NC(=O)[C@H](Cc2c[nH]c3ccccc23)NC(=O)[C@H](CCN)NC(=O)[C@@H](CCN)NC(=O)[C@H](CCC(=O)N[C@@H](CCN)C(=O)N[C@H](C(=O)N[C@@H](CN)C(=O)N[C@H]2CCNC(=O)[C@H]([C@@H](C)O)NC(=O)[C@H](CCN)NC(=O)[C@H](CCN)NC(=O)[C@H]([C@@H](C)O)NC(=O)[C@@H](CC(C)C)NC(=O)[C@H](CCN)NC2=O)[C@@H](C)O)NC(=O)[C@H](CO)NC(=O)[C@H](Cc2ccc(O)cc2)NC1=O)C(C)C [Ex. 261] (I: Ac-VCYSE[dDab][Dab]WS[Tle]CS-NH2 / II: [Dab]T[Dap][Dab][Dab][dL]T[Dab][Dab]T; disulfide I:2-I:11; amide I:5-II:N; lactam II:4-II:C)	0.0625 µg/mL (≈ 0.026 µM)	0.03125 µg/mL (≈ 0.013 µM)	0.125 µg/mL (≈ 0.0521 µM)	0.125 µg/mL (≈ 0.0521 µM)	0.03125 µg/mL (≈ 0.013 µM)	0.25 µg/mL (≈ 0.104 µM)	0.0625 µg/mL (≈ 0.026 µM)	0.125 µg/mL (≈ 0.0521 µM)	1%	0/3 died at 2 × 30 mg/kg
CC[C@@H]1NC(=O)[C@@H](CC(C)C)NC(=O)[C@H](CCN)NC(=O)[C@@H](NC(=O)[C@H](CN)NC(=O)[C@@H](NC(=O)[C@H](CCN)NC(=O)CC[C@@H]2NC(=O)[C@@H](NC(=O)[C@H](Cc3ccc(O)cc3)NC(=O)[C@@H](NC(=O)[C@@H](NC(C)=O)C(C)C)[C@@H](C)O)CSSC(C)(C)[C@@H](C(=O)N[C@H](C(=O)N[C@H](C(=O)N[C@H](C(N)=O)[C@@H](C)O)[C@@H](C)O)C(C)C)NC(=O)[C@H](Cc3c[nH]c4ccccc34)NC(=O)[C@H](CCN)NC(=O)[C@@H](CCN)NC2=O)[C@@H](C)O)CCNC(=O)[C@H]([C@@H](C)O)NC(=O)[C@H](CCN)NC(=O)[C@H](CCN)NC1=O [Ex. 266] (I: Ac-VTYCE[dDab][Dab]W[Pen]VTT-NH2 / II: [Dab]T[Dap][Dab][Dab][dL][Abu][Dab][Dab]T; disulfide I:4-I:9; amide I:5-II:N; lactam II:4-II:C)	0.5 µg/mL (≈ 0.205 µM)	0.0625 µg/mL (≈ 0.0256 µM)	0.25 µg/mL (≈ 0.102 µM)	0.5 µg/mL (≈ 0.205 µM)	0.03125 µg/mL (≈ 0.0128 µM)	1 µg/mL (≈ 0.41 µM)	0.0625 µg/mL (≈ 0.0256 µM)	0.125 µg/mL (≈ 0.0512 µM)	1%	0/3 died at 2 × 30 mg/kg
